{"source": "patent US20250353863A1", "about": "“TRICYCLIC SPIROLACTAM COMPOUNDS WITH ANTIMYCOBACTERIAL ACTIVITY” (priority 2022, published 2025)", "data": [{"tested_on": "Mtb H37Rv-WT", "experiment": "MIC by resazurin microtiter assay (REMA) against Mtb", "format": "cell-based", "conditions": "Mycobacterium tuberculosis, 144 h, REMA, 37° C., 6 days, read-out: MIC (μM) H37Rv-WT", "units": {"MIC": "µM"}, "values": [{"smiles": "CC(C)[C@H]1CO[C@]23CCN(Cc4ccc(C(F)(F)F)cc4)C[C@H]2C[C@@H](C)C(=O)N13", "MIC": "< 1"}, {"smiles": "CC(C)[C@H]1CO[C@]23CCN(CC4CCOCC4)C[C@H]2CCC(=O)N13", "note": "[(3S,7aR,11aR)-3-isopropyl-9-(tetrahydropyran-4-ylmethyl)-2,3,6,7,7a,8,10,11-octahydrooxazolo[2,3-j][1,6]naphthyridin-5-one]", "MIC": "> 10"}, {"smiles": "CC(C)[C@H]1CO[C@]23CCN(Cc4ccc(C(F)(F)F)cc4)C[C@H]2CC(F)(F)C(=O)N13", "note": "[(3S,7aR,11aR)-6,6-difluoro-3-isopropyl-9-[[4-(trifluoromethyl)phenyl]methyl]-3,7,7a,8,10,11-hexahydro-2H-oxazolo[2,3-j][1,6]naphthyridin-5-one]", "MIC": "< 1"}, {"smiles": "CC(C)[C@H]1CO[C@]23CCN(CC4CCCCO4)C[C@H]2CCC(=O)N13", "note": "(stereo partly drawn) [(3S,7aR,11aR)-3-isopropyl-9-(tetrahydropyran-2-ylmethyl)-2,3,6,7,7a,8,10,11-octahydrooxazolo[2,3-j][1,6]naphthyridin-5-one]", "MIC": "1 to 10"}, {"smiles": "CC(C)[C@H]1CO[C@]23CCN(Cc4cc(C5CC5)nc5ccccc45)C[C@H]2CCC(=O)N13", "note": "[(3S,7aR,11aR)-9-[(2-cyclopropyl-4-quinolyl)methyl]-3-isopropyl-2,3,6,7,7a,8,10,11-octahydrooxazolo[2,3-j][1,6]naphthyridin-5-one]", "MIC": "< 1"}, {"smiles": "CC(C)[C@H]1CO[C@]23CCN(Cc4ccc(N5CCCCC5)cc4)C[C@H]2CCC(=O)N13", "note": "[(3S,7aR,11aR)-3-isopropyl-9-[[4-(1-piperidyl)phenyl]methyl]-2,3,6,7,7a,8,10,11-octahydrooxazolo[2,3-j][1,6]naphthyridin-5-one]", "MIC": "1 to 10"}, {"smiles": "CC(C)[C@H]1CO[C@]23CCN(Cc4ccc(F)cc4)C[C@H]2CCC(=O)N13", "note": "[(3S,7aR,11aR)-9-[(4-fluorophenyl)methyl]-3-isopropyl-2,3,6,7,7a,8,10,11-octahydrooxazolo[2,3-j][1,6]naphthyridin-5-one]", "MIC": "< 1"}, {"smiles": "O=C1CC[C@@H]2CN(Cc3ccc(C(F)(F)F)cc3)CC[C@@]23OC[C@H](C(F)(F)F)N13", "note": "[(3R,7aR,11aR)-3-(trifluoromethyl)-9-[[4-(trifluoromethyl)phenyl]methyl]-2,3,6,7,7a,8,10,11-octahydrooxazolo[2,3-j][1,6]naphthyridin-5-one]", "MIC": "> 10"}, {"smiles": "CC(C)[C@H]1CO[C@]23CCN(c4ccc(C(F)(F)F)cc4)C[C@H]2CCC(=O)N13", "note": "[(3S,7aR,11aR)-3-isopropyl-9-[4-(trifluoromethyl)phenyl]-2,3,6,7,7a,8,10,11-octahydrooxazolo[2,3-j][1,6]naphthyridin-5-one]", "MIC": "1 to 10"}, {"smiles": "CC(C)C[C@@H]1C[C@@H]2CN(Cc3ccc(C(F)(F)F)cc3)CC[C@@]23OC[C@H](C(C)C)N3C1=O", "note": "[(3S,6R,7aR,11aR)-6-isobutyl-3-isopropyl-9-[[4-(trifluoromethyl)phenyl]methyl]-2,3,6,7,7a,8,10,11-octahydrooxazolo[2,3-j][1,6]naphthyridin-5-one]", "MIC": "> 10"}, {"smiles": "CC(C)[C@H]1CO[C@]23CCN(Cc4ccc(N5CCC(Oc6ccc(OC(F)(F)F)cc6)CC5)cc4)C[C@H]2CCC(=O)N13", "note": "[(3S,7aR,11aR)-3-isopropyl-9-[[4-[4-[4-(trifluoromethoxy)phenoxy]-1-piperidyl]phenyl]methyl]-2,3,6,7,7a,8,10,11-octahydrooxazolo[2,3-j][1,6]naphthyridin-5-one]", "MIC": "< 1"}, {"smiles": "O=C1CC[C@@H]2CN(Cc3ccccc3)CC[C@@]23OC[C@H](C2CC2)N13", "note": "[(3S,7aR,11aR)-9-benzyl-3-cyclopropyl-2,3,6,7,7a,8,10,11-octahydrooxazolo[2,3-j][1,6]naphthyridin-5-one]", "MIC": "> 10"}, {"smiles": "CC(C)[C@H]1CO[C@]23CCN(Cc4ccc(-c5ccccc5)cc4)C[C@H]2CCC(=O)N13", "note": "[(3S,7aR,11aR)-3-isopropyl-9-[(4-phenylphenyl)methyl]-2,3,6,7,7a,8,10,11-octahydrooxazolo[2,3-j][1,6]naphthyridin-5-one]", "MIC": "< 1"}, {"smiles": "CC(C)[C@H]1CCO[C@]23CCN(Cc4ccc(C(F)(F)F)cc4)C[C@H]2CCC(=O)N13", "MIC": "1 to 10"}, {"smiles": "O=C1CC[C@@H]2CN(Cc3ccccc3)CC[C@@]23N[C@H]2CCCC[C@@H]2N13", "note": "[(1S,6R,11S,16S)-4-benzyl-4,10,17-triazatetracyclo[8.7.0.01,6.011,16] heptadecan-9-one]", "MIC": "> 10"}, {"smiles": "CC(C)[C@H]1CO[C@]23CCN(Cc4ccc(Cl)c(C(F)(F)F)c4)C[C@H]2CCC(=O)N13", "note": "[(3S,7aR,11aR)-9-[[4-chloro-3-(trifluoromethyl)phenyl]methyl]-3-isopropyl-2,3,6,7,7a,8,10,11-octahydrooxazolo[2,3-j][1,6]naphthyridin-5-one]", "MIC": "< 1"}, {"smiles": "CC(C)[C@H]1CO[C@]23CCN(Cc4ccc5ncccc5c4)C[C@H]2CCC(=O)N13", "note": "[(3S,7aR,11aR)-3-isopropyl-9-(6-quinolylmethyl)-2,3,6,7,7a,8,10,11-octahydrooxazolo[2,3-j][1,6]naphthyridin-5-one]", "MIC": "1 to 10"}, {"smiles": "CC[C@H]1C[C@@H]2CN(Cc3ccc(C(F)(F)F)cc3)CC[C@@]23OC[C@H](C(C)C)N3C1=O", "note": "[(3S,6S,7aR,11aR)-6-ethyl-3-isopropyl-9-[[4-(trifluoromethyl)phenyl]methyl]-2,3,6,7,7a,8,10,11-octahydrooxazolo[2,3-j][1,6]naphthyridin-5-one]", "MIC": "> 10"}, {"smiles": "CC(C)[C@H]1CO[C@]23CCN(S(=O)(=O)CCCc4ccc(C(F)(F)F)cc4)C[C@H]2CCC(=O)N13", "MIC": "< 1"}, {"smiles": "CC(C)[C@H]1CO[C@]23CC[C@H](N(Cc4ccc(C(F)(F)F)cc4)Cc4ccc(C(F)(F)F)cc4)C[C@H]2CCC(=O)N13", "MIC": "< 1"}, {"smiles": "CC(C)[C@H]1CO[C@]23CCN(Cc4cc(C(F)(F)F)nc5ccccc45)C[C@H]2CCC(=O)N13", "note": "[(3S,7aR,11aR)-3-isopropyl-9-[[2-(trifluoromethyl)-4-quinolyl]methyl]-2,3,6,7,7a,8,10,11-octahydrooxazolo[2,3-j][1,6]naphthyridin-5-one]", "MIC": "< 1"}, {"smiles": "CC(C)[C@H]1CO[C@]23CCN(C(=O)OCc4ccc(C(F)(F)F)cc4)C[C@H]2CCC(=O)N13", "note": "[[4-(trifluoromethyl)phenyl]methyl (3S,7aR,11aR)-3-isopropyl-5-oxo-2,3,6,7,7a,8,10,11-octahydrooxazolo[2,3-j][1,6]naphthyridine-9-carboxylate]", "MIC": "1 to 10"}, {"smiles": "CC(C)[C@H]1CO[C@]23CCCN(Cc4ccc(C(F)(F)F)cc4)C[C@H]2CCC(=O)N13", "note": "[(4S,9R)-4-isopropyl-11-[[4-(trifluoromethyl)phenyl]methyl]-2-oxa-5,11-diazatricyclo[7,5,0.01,5]tetradecan-6-one]", "MIC": "< 1"}, {"smiles": "CC(C)[C@H]1CO[C@]23CCN(Cc4ccc(C(F)(F)F)cc4)C[C@H]2C[C@@H](F)C(=O)N13", "note": "[(3S,7aR,11aR)-6-fluoro-3-isopropyl-9-[[4-(trifluoromethyl)phenyl]methyl]-2,3,6,7,7a,8,10,11-octahydrooxazolo[2,3-j][1,6]naphthyridin-5-one]", "MIC": "< 1"}, {"smiles": "CC(C)[C@H]1CO[C@]23CCN(Cc4ccc(C(F)(F)F)cc4)C[C@H]2C[C@H](C)C(=O)N13", "note": "(single isomer, unassigned)", "MIC": "1 to 10"}, {"smiles": "CC(C)[C@H]1CO[C@]23CCN(Cc4ccc(O)cc4)C[C@H]2CCC(=O)N13", "note": "[(3S,7aR,11aR)-9-[(4-hydroxyphenyl)methyl]-3-isopropyl-2,3,6,7,7a,8,10,11-octahydrooxazolo[2,3-j][1,6]naphthyridin-5-one]", "MIC": "> 10"}, {"smiles": "CC(C)[C@H]1CO[C@]23CCN(C(=O)OCCc4ccc(C(F)(F)F)cc4)C[C@H]2CCC(=O)N13", "MIC": "1 to 10"}, {"smiles": "CC(C)[C@H]1CO[C@]23CCN(C(=O)Cc4ccc(C(F)(F)F)cc4)C[C@H]2CCC(=O)N13", "note": "[(3S,7aR,11aR)-3-isopropyl-9-[2-[4-(trifluoromethyl)phenyl]acetyl]-2,3,6,7,7a,8,10,11-octahydrooxazolo[2,3-j][1,6]naphthyridin-5-one]", "MIC": "> 10"}, {"smiles": "CC(C)[C@H]1CO[C@]23CCN(Cc4cc5ccccc5n4C)C[C@H]2CCC(=O)N13", "MIC": "< 1"}, {"smiles": "CC(C)[C@H]1CO[C@]23CCN(S(=O)(=O)Cc4ccc(C(F)(F)F)cc4)C[C@H]2CCC(=O)N13", "MIC": "< 1"}, {"smiles": "Cc1c(CN2CC[C@]34OC[C@H](C(C)C)N3C(=O)CC[C@@H]4C2)[nH]c2ccccc12", "note": "[(3S,7aR,11aR)-3-isopropyl-9-[(3-methyl-1H-indol-2-yl)methyl]-2,3,6,7,7a,8,10,11-octahydrooxazolo[2,3-j][1,6]naphthyridin-5-one]", "MIC": "< 1"}, {"smiles": "CC(C)[C@H]1CO[C@]23CCN(Cc4ccc(C(F)(F)F)cc4)[C@H]2CCC(=O)N13", "note": "[(1R,4S,9S)-4-isopropyl-10-[[4-(trifluoromethyl)phenyl]methyl]-2-oxa-5,10-diazatricyclo[7.3.0.01,5]dodecan-6-one]", "MIC": "< 1"}]}, {"tested_on": "Mtb H37Rv-WT", "experiment": "MIC by resazurin microtiter assay (REMA) against Mtb", "format": "cell-based", "conditions": "Mycobacterium tuberculosis, 144 h, read-out: MIC (μM) H37Rv-WT", "units": {"MIC": "µM"}, "values": [{"smiles": "CC(C)[C@H]1CO[C@]23CCN(Cc4ccncc4)C[C@H]2CCC(=O)N13", "note": "[(3S,7aR,11aR)-3-isopropyl-9-(4-pyridylmethyl)-2,3,6,7,7a,8,10,11-octahydrooxazolo[2,3-j][1,6]naphthyridin-5-one]", "MIC": "> 10"}]}, {"tested_on": "Mtb H37Rv-WT", "experiment": "MIC by resazurin microtiter assay (REMA) against Mtb", "format": "cell-based", "conditions": "Mycobacterium tuberculosis, REMA, read-out: MIC M. tuberculosis", "units": {"MIC": "µM"}, "values": [{"smiles": "CC(C)[C@H]1CO[C@]23CCN(Cc4cc(C5CC5)nc5ccccc45)C[C@H]2CCC(=O)N13", "note": "[Example 24, (3S,7aR,11aR)-9-[(2-cyclopropyl-4-quinolyl)methyl]-3-isopropyl-2,3,6,7,7a,8,10,11-octahydrooxazolo[2,3-j][1,6]naphthyridin-5-one]", "MIC": "< 1"}, {"smiles": "CC(C)[C@H]1CO[C@]23CCN(Cc4ccc(C(F)(F)F)cc4C(F)(F)F)C[C@H]2CCC(=O)N13", "note": "[Example 10, (3S,7aR,11aR)-9-[[2,4-bis(trifluoromethyl)phenyl]methyl]-3-isopropyl-2,3,6,7,7a,8,10,11-octahydrooxazolo[2,3-j][1,6]naphthyridin-5-one]", "MIC": "< 1"}, {"smiles": "CC(C)[C@H]1CO[C@]23CCN(CCc4ccc(C(F)(F)F)cc4)C[C@H]2CCC(=O)N13", "note": "[Example 38, (3S,7aR,11aR)-3-isopropyl-9-[2-[4-(trifluoromethyl)phenyl]ethyl]-2,3,67,7a,8,10,11-octahydrooxazolo[2,3-j][1,6]naphthyridin-5-one]", "MIC": "< 1"}, {"smiles": "CC(C)[C@H]1CO[C@]23CCN(CCCc4ccc(C(F)(F)F)cc4)C[C@H]2CCC(=O)N13", "note": "[Example 39, (3S,7aR,11aR)-3-isopropyl-9-[3-[4-(trifluoromethyl)phenyl]propyl]-2,3,6,7,7a,8,10,11-octahydrooxazolo[2,3-j][1,6]naphthyridin-5-one]", "MIC": "< 1"}]}]}
